Key:
Experiment in all cases: Ray2010 Assay 74
[1] = biological target: Delta-type opioid receptor (Homo sapiens, UniProt P41143)
Source text: (§1) Table S2 shows raw Ki data for the current study combined with data collected from the literature for the ten additional compounds.

[2] = biological target: Glutamate receptor ionotropic, NMDA 2A (Homo sapiens, UniProt Q12879)
Source text: as §1

[3] = biological target: Sodium-dependent noradrenaline transporter (Homo sapiens, UniProt P23975)
Source text: as §1

[4] = biological target: Histamine H4 receptor (Homo sapiens, UniProt Q9H3N8)
Source text: as §1

[5] = biological target: D(2) dopamine receptor (Homo sapiens, UniProt P14416)
Source text: as §1

[6] = biological target: 5-hydroxytryptamine receptor 2A (Homo sapiens, UniProt P28223)
Source text: as §1

[7] = biological target: T1, Muscarinic acetylcholine receptor M2 (Homo sapiens, UniProt P08172)
T1 sequence (P08172 whole entry): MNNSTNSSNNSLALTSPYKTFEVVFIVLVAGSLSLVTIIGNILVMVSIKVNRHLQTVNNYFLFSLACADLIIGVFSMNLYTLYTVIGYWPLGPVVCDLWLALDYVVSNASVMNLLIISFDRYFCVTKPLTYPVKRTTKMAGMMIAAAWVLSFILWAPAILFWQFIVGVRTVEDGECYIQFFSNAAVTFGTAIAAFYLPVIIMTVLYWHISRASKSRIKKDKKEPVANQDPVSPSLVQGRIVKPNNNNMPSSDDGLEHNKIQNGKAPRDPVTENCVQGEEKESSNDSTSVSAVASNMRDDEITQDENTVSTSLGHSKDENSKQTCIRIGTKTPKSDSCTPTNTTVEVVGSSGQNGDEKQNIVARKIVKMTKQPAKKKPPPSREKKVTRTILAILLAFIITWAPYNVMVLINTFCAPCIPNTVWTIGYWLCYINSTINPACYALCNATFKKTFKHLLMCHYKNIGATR
Source text: as §1

[8] = biological target: T2, Alpha-1A adrenergic receptor (Homo sapiens, UniProt P35348)
T2 sequence (P35348 whole entry): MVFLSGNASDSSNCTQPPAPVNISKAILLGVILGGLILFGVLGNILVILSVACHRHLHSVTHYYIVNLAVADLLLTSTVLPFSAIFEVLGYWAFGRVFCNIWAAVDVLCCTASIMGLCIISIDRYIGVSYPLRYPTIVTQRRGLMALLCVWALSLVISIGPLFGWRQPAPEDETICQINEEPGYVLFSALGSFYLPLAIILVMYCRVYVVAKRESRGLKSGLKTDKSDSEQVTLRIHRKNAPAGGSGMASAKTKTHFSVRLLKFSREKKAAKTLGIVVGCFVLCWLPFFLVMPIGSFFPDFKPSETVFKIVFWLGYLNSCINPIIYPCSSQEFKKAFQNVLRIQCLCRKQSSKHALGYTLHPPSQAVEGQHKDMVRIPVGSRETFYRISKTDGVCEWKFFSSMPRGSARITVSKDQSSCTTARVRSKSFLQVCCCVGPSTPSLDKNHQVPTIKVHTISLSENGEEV
Source text: as §1

[9] = biological target: T3, Muscarinic acetylcholine receptor M1 (Homo sapiens, UniProt P11229)
T3 sequence (P11229 whole entry): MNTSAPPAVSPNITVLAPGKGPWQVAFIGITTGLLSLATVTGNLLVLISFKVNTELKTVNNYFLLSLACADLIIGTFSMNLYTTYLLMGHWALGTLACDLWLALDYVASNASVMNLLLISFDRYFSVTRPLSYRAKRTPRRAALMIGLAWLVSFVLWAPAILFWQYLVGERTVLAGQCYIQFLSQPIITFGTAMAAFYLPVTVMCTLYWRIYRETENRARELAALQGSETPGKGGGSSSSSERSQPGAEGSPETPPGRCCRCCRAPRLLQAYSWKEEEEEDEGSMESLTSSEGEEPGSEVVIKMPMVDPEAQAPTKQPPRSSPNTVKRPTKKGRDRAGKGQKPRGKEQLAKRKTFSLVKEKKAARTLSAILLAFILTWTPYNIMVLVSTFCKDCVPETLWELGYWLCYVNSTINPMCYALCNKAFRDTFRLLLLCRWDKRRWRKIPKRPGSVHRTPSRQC
Source text: as §1

[10] = biological target: Histamine H1 receptor (Homo sapiens, UniProt P35367)
Source text: as §1

[11] = biological target: Sodium-dependent dopamine transporter (Homo sapiens, UniProt Q01959)
Source text: as §1

[12] = biological target: 5-hydroxytryptamine receptor 1D (Homo sapiens, UniProt P28221)
Source text: as §1

[13] = biological target: T4, D(4) dopamine receptor (Homo sapiens, UniProt P21917)
T4 sequence (P21917 whole entry): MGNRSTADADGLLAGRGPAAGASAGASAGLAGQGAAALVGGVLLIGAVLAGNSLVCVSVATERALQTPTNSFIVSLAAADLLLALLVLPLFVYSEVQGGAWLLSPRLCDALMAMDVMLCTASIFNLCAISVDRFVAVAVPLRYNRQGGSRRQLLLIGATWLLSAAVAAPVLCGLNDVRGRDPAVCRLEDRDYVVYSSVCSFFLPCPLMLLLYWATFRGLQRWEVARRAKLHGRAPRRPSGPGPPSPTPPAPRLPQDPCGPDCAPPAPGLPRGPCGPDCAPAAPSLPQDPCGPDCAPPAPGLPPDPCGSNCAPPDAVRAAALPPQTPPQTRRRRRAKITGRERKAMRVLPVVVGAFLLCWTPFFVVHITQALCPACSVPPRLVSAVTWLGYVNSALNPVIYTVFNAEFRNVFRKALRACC
Source text: as §1

[14] = biological target: T5, Alpha-2A adrenergic receptor (Homo sapiens, UniProt P08913)
T5 sequence (P08913 whole entry): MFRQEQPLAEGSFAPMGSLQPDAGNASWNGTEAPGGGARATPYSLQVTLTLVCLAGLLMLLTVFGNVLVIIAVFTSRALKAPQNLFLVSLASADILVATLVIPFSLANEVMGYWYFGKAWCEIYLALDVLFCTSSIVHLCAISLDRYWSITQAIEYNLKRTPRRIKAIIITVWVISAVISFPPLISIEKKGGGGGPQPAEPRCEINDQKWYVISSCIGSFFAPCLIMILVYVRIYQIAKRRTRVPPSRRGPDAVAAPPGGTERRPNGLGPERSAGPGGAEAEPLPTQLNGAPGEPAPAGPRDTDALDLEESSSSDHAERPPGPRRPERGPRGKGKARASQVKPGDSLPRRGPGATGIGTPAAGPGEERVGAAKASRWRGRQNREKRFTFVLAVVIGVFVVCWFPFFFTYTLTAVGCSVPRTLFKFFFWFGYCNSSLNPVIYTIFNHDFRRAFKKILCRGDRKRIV
Source text: as §1

[15] = biological target: 5-hydroxytryptamine receptor 1B (Homo sapiens, UniProt P28222)
Source text: as §1

Chain of Delta-type opioid receptor (P41143 whole entry): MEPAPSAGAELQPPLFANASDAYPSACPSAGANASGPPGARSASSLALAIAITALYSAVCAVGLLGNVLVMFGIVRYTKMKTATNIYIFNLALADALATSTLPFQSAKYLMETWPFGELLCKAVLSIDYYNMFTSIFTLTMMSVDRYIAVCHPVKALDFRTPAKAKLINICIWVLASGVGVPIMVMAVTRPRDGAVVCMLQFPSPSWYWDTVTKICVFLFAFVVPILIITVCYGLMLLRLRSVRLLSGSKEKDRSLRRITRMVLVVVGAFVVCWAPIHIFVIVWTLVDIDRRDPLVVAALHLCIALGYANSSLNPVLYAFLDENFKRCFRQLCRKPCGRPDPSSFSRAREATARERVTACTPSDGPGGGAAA
Chain of Histamine H1 receptor (P35367 whole entry): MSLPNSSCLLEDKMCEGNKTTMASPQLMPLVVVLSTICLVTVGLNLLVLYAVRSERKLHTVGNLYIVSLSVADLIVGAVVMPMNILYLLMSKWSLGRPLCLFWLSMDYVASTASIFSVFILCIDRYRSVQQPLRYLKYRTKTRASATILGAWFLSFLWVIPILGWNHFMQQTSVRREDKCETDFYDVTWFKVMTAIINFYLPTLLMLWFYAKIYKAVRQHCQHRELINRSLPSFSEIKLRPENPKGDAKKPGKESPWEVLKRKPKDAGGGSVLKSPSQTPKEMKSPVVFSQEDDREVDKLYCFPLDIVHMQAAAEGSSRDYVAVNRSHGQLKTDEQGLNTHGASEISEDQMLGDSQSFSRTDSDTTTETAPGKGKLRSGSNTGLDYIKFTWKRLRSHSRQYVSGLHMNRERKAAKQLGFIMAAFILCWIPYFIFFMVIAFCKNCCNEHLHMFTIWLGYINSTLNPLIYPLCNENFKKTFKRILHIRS
Chain of 5-hydroxytryptamine receptor 1D (P28221 whole entry): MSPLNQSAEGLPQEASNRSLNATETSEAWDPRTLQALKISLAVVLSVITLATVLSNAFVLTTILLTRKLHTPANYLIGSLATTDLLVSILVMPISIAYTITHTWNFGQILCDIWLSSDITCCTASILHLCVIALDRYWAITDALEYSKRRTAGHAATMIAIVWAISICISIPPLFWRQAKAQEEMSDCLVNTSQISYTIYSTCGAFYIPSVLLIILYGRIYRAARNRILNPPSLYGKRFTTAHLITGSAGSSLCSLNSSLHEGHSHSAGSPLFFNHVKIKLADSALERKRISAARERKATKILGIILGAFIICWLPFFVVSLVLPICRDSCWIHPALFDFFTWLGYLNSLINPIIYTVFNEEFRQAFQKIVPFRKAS
Chain of 5-hydroxytryptamine receptor 1B (P28222 whole entry): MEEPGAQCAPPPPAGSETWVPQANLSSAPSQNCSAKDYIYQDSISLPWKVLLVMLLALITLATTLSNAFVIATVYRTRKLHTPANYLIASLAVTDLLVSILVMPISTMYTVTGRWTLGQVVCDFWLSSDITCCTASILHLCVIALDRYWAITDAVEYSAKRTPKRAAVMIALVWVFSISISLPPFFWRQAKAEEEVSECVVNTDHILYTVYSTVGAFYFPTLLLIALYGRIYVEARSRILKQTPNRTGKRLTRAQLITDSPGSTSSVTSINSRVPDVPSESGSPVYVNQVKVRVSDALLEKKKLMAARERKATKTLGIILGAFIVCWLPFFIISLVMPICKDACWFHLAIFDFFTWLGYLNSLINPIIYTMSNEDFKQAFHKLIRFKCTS
Chain of D(2) dopamine receptor (P14416 whole entry): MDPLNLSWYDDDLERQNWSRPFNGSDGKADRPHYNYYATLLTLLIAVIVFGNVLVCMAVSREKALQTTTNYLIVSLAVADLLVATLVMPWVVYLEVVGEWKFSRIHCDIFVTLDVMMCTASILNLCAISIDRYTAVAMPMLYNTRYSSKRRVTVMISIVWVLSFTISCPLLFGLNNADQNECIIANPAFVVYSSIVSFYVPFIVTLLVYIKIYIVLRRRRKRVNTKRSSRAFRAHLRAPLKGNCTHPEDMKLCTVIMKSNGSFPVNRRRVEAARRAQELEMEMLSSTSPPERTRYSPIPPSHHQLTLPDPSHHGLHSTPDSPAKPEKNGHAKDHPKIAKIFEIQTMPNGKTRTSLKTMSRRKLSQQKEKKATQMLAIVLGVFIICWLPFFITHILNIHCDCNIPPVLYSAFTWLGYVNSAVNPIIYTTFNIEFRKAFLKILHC
Chain of Sodium-dependent noradrenaline transporter (P23975 whole entry): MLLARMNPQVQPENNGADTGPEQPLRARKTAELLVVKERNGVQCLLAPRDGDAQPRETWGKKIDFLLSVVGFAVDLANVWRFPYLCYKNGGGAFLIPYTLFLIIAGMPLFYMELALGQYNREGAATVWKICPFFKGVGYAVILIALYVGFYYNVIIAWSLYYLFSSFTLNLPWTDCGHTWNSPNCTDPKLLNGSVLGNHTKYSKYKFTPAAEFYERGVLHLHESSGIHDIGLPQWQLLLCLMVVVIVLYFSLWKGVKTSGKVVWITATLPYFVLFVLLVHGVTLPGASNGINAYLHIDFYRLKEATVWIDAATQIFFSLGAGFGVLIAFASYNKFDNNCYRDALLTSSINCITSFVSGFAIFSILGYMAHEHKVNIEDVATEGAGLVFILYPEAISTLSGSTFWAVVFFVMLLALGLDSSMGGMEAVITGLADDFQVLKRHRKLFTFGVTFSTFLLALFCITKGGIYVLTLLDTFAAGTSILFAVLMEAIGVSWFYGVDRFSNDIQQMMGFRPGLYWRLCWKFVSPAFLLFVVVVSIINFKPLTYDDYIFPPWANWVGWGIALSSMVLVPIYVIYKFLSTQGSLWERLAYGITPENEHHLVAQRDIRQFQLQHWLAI
Chain of 5-hydroxytryptamine receptor 2A (P28223 whole entry): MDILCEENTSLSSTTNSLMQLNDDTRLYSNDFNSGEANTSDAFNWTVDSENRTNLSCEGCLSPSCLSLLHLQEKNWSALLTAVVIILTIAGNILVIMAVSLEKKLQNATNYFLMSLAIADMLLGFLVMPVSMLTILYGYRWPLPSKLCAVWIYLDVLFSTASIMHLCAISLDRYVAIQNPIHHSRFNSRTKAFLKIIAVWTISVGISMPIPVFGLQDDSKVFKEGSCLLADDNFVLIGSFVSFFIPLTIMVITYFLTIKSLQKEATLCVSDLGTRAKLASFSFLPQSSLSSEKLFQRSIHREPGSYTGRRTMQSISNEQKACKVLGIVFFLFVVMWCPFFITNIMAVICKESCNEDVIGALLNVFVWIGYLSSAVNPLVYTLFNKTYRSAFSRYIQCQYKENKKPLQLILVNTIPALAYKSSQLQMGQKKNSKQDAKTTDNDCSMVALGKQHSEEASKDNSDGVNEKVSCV
Chain of Sodium-dependent dopamine transporter (Q01959 whole entry): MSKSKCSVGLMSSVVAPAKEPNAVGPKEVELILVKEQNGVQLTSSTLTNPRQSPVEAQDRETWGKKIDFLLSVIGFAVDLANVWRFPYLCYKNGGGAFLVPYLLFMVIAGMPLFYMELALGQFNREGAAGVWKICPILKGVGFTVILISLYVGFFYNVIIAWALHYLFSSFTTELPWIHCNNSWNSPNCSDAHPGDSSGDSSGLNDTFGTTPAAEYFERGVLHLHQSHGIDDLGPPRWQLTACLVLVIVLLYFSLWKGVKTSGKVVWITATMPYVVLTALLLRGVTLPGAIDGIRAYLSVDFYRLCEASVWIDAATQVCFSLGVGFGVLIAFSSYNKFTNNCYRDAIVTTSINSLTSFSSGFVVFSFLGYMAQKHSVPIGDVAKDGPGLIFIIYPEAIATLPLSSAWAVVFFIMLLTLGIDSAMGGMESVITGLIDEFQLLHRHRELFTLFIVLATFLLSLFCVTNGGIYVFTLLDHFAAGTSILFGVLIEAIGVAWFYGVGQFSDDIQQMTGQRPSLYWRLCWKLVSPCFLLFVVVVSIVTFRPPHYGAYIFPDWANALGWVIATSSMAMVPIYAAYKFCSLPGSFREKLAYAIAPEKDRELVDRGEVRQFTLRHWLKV
Chain of Histamine H4 receptor (Q9H3N8 whole entry): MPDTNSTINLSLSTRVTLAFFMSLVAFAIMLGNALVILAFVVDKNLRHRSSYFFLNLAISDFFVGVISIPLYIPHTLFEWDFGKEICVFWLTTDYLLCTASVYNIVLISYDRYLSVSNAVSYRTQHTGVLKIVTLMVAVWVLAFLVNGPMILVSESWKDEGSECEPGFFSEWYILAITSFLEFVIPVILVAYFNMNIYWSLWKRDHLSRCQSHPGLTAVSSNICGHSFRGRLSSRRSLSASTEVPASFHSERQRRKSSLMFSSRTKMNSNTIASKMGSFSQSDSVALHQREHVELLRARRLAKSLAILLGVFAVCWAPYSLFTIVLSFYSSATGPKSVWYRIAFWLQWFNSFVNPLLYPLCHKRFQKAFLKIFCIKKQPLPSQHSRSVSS

Compound | Ki [1] | Ki [2] | Ki [3] | Ki [4] | Ki [5] | Ki [6] | Ki [7] | Ki [8] | Ki [9] | Ki [10] | Ki [11] | Ki [12] | Ki [13] | Ki [14] | Ki [15]
CC(C)N(CCc1c[nH]c2ccccc12)C(C)C [dipt] | > 10 µM | > 10 µM | > 10 µM | > 10 µM | > 10 µM | > 10 µM | > 10 µM | > 10 µM | > 10 µM | 3.58 µM | > 10 µM | 3.74 µM | > 10 µM | > 10 µM | > 10 µM
CCCN(CCC)CCc1c[nH]c2ccccc12 [dpt] | > 10 µM | > 10 µM | > 10 µM | > 10 µM | 9.25 µM | 2.58 µM | > 10 µM | 0.881 µM | > 10 µM | 0.125 µM | 1.5 µM | 0.619 µM | 2.01 µM | 0.458 µM | 0.854 µM
CAS_82830-44-2::(2R)-1-(4-iodo-2,5-dimethoxyphenyl)propan-2-amine::DOI,(-)::US20250270173, Compound DOI | > 10 µM | > 10 µM | > 10 µM | > 10 µM | > 10 µM | 0.165 µM | 1.99 µM | > 10 µM | 2.72 µM | 1.76 µM | > 10 µM | 0.458 µM | > 10 µM | 0.0737 µM | > 10 µM
